From ChEMBL document CHEMBL3045413, “Occurrence of zearalenone-4-beta-D-glucopyranoside in wheat” (J Agric Food Chem, 2002)

Legend:
Type in all cases: ADME, organism-based
Triticum aestivum [1] = assay: Drug recovery in BavarianTriticum aestivum (wheat) samples at 10 ug/kg after 1 day by LC-MS analysis; conditions: in vivo, 0.01 mg/kg, 24 h
Triticum aestivum [2] = assay: Drug recovery in Bavarian Triticum aestivum (wheat) samples at 100 ug/kg after 1 day by LC-MS analysis; conditions: in vivo, 0.1 mg/kg, 24 h
Triticum aestivum [3] = assay: Drug level in Bavarian Triticum aestivum (wheat) at 10 to 100 ug/kg after 1 day by LC-MS analysis; conditions: in vivo, 24 h

| Compound | Drug recovery (Triticum aestivum [1]) [%] | Drug recovery (Triticum aestivum [2]) [%] | Drug uptake (Triticum aestivum [3]) [µg/kg] |
| --- | --- | --- | --- |
| C[C@H]1CCCC(=O)CCC/C=C/c2cc(O)cc(O)c2C(=O)O1 [ZEARALENONE] | 32 | 89 | 11 |
| C[C@H]1CCCC(=O)CCC/C=C/c2cc(O[C@@H]3O[C@H](CO)[C@@H](O)[C@H](O)[C@H]3O)cc(O)c2C(=O)O1 [Zearalenone-4-beta-D-glucopyranoside] | 67 | 69 | 17 |
